One compound from patent US12343430B2, “Methods of improving pharmaceutical substance solubilization and products thereof” (MUDANJIANG LINRUN PHARAMA EXCIPIENTS LLC., priority 2019, dated 2025) can be followed below.

Series [1] is described as follows: Solubility time profile of co-attrited Carbamazepine at 37° C. (Example 12). The class given is physicochemical. The note with it: 100 mL DI water, 0.45 μm filter, UV 285 nm. The source says: All the final extrudant samples from Examples 8-11 were milled into powder and passed through an 80 mesh screen. […] At each sampling time, the solution sample was taken and filtered through a 0.45 μm syringe microfilter. […] For reference, the API Carbamazepine sample was used as control.

Series [2] is described as follows: Solubility time profile of co-attrited Carbamazepine at 25° C., HPLC (Example 14). The note with it: 500 mL DI water, paddle 100 rpm. The class given is physicochemical. The source says: At each time interval, a given amount of solution was sampled and tested by an HPLC method.

Values after ≈ are worked out from the molar mass of the structure shown.

On to `NC(=O)N1c2ccccc2C=Cc2ccccc21` [Carbamazepine API, Carbamazepine], for which the results for the Solubility in series [1] (60 min) and in series [1] (180 min) were 320 µg/mL (≈ 1350 µM) and 288 µg/mL (≈ 1220 µM), respectively. Further, the solubility at 5 min stood at 404 µg/mL (≈ 1710 µM) in series [1] (deionised water, thermodynamic from solid, 5 min) and 89.2 µg/mL (≈ 377 µM) in series [2] (deionised water, thermodynamic from solid, 5 minutes, read-out: Solubility, drug concentration). The solubility at 10 min in series [1] (deionised water, thermodynamic from solid, 10 min) was determined as 402 µg/mL (≈ 1700 µM); in series [2] (deionised water, thermodynamic from solid, 10 minutes, read-out: Solubility, drug concentration), 176 µg/mL (≈ 743 µM). This compound also gave a solubility at 15 min in series [1] (deionised water, thermodynamic from solid, 15 min) of 401 µg/mL (≈ 1700 µM). This compound displayed a solubility at 90 min in series [1] (deionised water, thermodynamic from solid, 90 min) of 316 µg/mL (≈ 1340 µM). This compound displayed a solubility at 120 min in series [1] (deionised water, thermodynamic from solid, 120 min) of 303 µg/mL (≈ 1280 µM). Also, the “Solubility, drug concentration” value worked out at 225.68 µg/mL (≈ 955 µM) in series [2] (15 minutes) and 202.16 µg/mL (≈ 856 µM) in series [2] (30 minutes). For the same compound, in series [2] (deionised water, thermodynamic from solid, 45 minutes, read-out: Solubility, drug concentration), the solubility at 45 min was determined as 175 µg/mL (≈ 741 µM). Besides, in series [2] (deionised water, thermodynamic from solid, 60 minutes, read-out: Solubility, drug concentration), the solubility at 60 min was found to be 173 µg/mL (≈ 731 µM).

Usually Solubility stands for the concentration that dissolves in the medium under given conditions. The low end stands for little dissolved substance, the high end for much dissolved substance.
